The text below walks through data of patent US9328117B2, “Bromodomain inhibitors and uses thereof” (Constellation Pharmaceuticals, Inc., priority 2011, dated 2016).

One assay addresses T1, BRD4(BD1) (Homo sapiens, UniProt O60885).
T1 construct: His; made in house
The assay can be described thus: BRD4 AlphaLisa binding assay. The note with it: BRD4(BD1) 30 nM, biotinylated H4-tetraacetyl peptide 200 nM. The procedure: A. IC50 Measurements for Inhibitors Using BRD4 AlphaLisa Binding Assay
His/Flag epitope tagged BRD4 BD142-168 was cloned, expressed and purified to homogeneity. BRD4 binding and inhibition was assessed by monitoring the engagement of biotinylated H4-tetraacetyl peptide (Millipore #12-379) with the target using the AlphaLisa technology (Perkin-Elmer). Specifically, in a 384 well ProxiPlate BRD4(BD1) (30 nM final) was combined with peptide (200 nM final) in 40 mM HEPES (pH 7.0), 40 mM NaCl, 1 mM DTT, 0.01% (w/v) BSA, and 0.008% (w/v) Brij-35 either in the presence of DMSO (final 1.2% DMSO) or compound dilution series in DMSO. After 20 minute incubation at room temperature Alpha streptavidin donor beads and AlphaLisa anti-Flag acceptor beads were added to a final concentration of 10 ug/mL each. After three hours equilibration plates were read on an Envision instrument and IC50s calculated using a four parameter non-linear curve fit.

Assay [1] deals with IL-6 secretion in LPS-treated THP-1 cells. Briefly: Cell-based IL-6 quantification assay (ELISA, Mesoscale). The conditions noted are these: Homo sapiens, LPS 4 μg/mL, 16 h, normalised to CellTiter-Glo. The procedure:
C. Cell-Based IL-6 Quantification Assay (ELISA, Mesoscale Assay):
100,000 THP-1 cells were seeded in RPMI1640-10% FBS in 96-well plates. LPS (E. Coli Invitrogen) in RPMI-10% FBS at a final concentration of 4 μg/mL was added to the wells and the cells are then incubated in the presence of various concentrations of compounds for 16 h. Plates are spun ([…], 5 min), an aliquot of 25 uL supernatant is transferred in to an ELISA plate (Mesoscale technology, MSD) and the detection of IL-6 is performed using manufacturer's instructions. The amount of cells in each well is assessed using CellTiter-Glo® (Promega). The ratio of ELISA value/CellTiter-Glo value is used to calculate the percent of inhibition of IL-6 secretion.

In assay [2] the test system is MYC mRNA in Raji (Burkitt lymphoma) cells. Briefly: cMyc RNA quantification assay (QuantiGene), Raji. The assay is classed as cell-based. The conditions noted are these: Homo sapiens, 4 h. The procedure: (§1) B. cMyc RNA quantification assay (QuantiGene® Assay)
(§2) MV4:11 (AML) or Raji (Burkitt lymphoma) cells were seeded in a 96-well plate and incubated in the presence of various concentrations of compounds for 4 h. Relative mRNA levels were quantitated by using QuantiGene 2.0 assay (Affymetrix) according to the manufacturer's recommendation. Signals were detected by using an Envision plate reader (Perkin-Elmer). Biological duplicates were averaged and normalized to vehicle (DMSO) control to calculate percent MYC mRNA levels.

In assay [3] the test system is MYC mRNA in MV4:11 (AML) cells. The assay can be described thus: cMyc RNA quantification assay (QuantiGene), MV4:11. In kind it is cell-based. The conditions noted are these: Homo sapiens; MV4-11 cells, 4 h. The procedure:
as §1, §2

As to `Cc1nnc2c(C(N)=O)cc(N(C)[C@@H](C)c3ccccc3)nn12` [Compound 7, (S)-3-methyl-6-(methyl(1-phenylethyl)amino)-[1,2,4]triazolo[4,3-b]pyridazine-8-carboxamide], the IC50 (on BRD4(BD1); in assay [1]) was above 1 µM throughout.
On to `CCOC(=O)Nc1cc(N(C)[C@@H](C)c2ccccc2)nn2c(C)nnc12` [Compound 11], for which the IC50 (at BRD4(BD1); in assay [1]; in assay [2]) was below 0.5 µM throughout.
Regarding `Cc1nnc2ccc(NC(C)c3ccccc3)nn12` (racemic) [Compound 1, rac-3-methyl-N-(1-phenylethyl)-[1,2,4]triazolo[4,3-b]pyridazin-6-amine], the IC50 (at BRD4(BD1); in assay [1]; in assay [3]) was above 1 µM each time.
Consider `CCNC(=O)Nc1cc(N(C)[C@@H](C)c2ccc(F)cc2)nn2c(C)nnc12` [Compound 12], for which the IC50 (at BRD4(BD1); in assay [1]; in assay [3]) was below 0.5 µM throughout.
Turning to `Cc1nnc2ccc(N(C)[C@H](C)c3ccccc3)nn12` [Compound 4, (R)-N,3-dimethyl-N-(1-phenylethyl)-[1,2,4]triazolo[4,3-b]pyridazin-6-amine], the IC50 on BRD4(BD1) was above 1 µM.
With `Cc1nnc2c(NC(=O)N(C)C)cc(N(C)[C@@H](C)c3ccccc3)nn12` [Compound 8, (S)-1,1-dimethyl-3-(3-methyl-6-(methyl(1-phenylethyl)amino)-[1,2,4]triazolo[4,3-b]pyridazin-8-yl)urea], the results for the IC50 (at BRD4(BD1); in assay [1]; in assay [2]) were below 0.5 µM, 0.5 to 1 µM and above 1 µM, respectively.
As for `Cc1nnc2ccc(N(C)C(C)c3ccccc3)nn12` (stereo not shown) [Compound 2, N,3-dimethyl-N-(1-phenylethyl)-[1,2,4]triazolo[4,3-b]pyridazin-6-amine], the IC50 is 0.5 to 1 µM on BRD4(BD1) and above 1 µM in assay [1].
Consider `C[C@@H](c1ccccc1)N(C)c1ccc2nnc(C#N)n2n1` [Compound 9, (S)-6-(methyl(1-phenylethyl)amino)-[1,2,4]triazolo[4,3-b]pyridazine-3-carbonitrile], for which the IC50 (on BRD4(BD1); in assay [1]; in assay [3]) was above 1 µM each time.
As to `CCNC(=O)Nc1cc(N(C)[C@@H](C)c2ccc(Cl)cc2)nn2c(C)nnc12` [Compound 13], the IC50 (on BRD4(BD1); in assay [1]; in assay [3]) was below 0.5 µM in each case.
As for `Cc1nnc2c(N)cc(N(C)[C@@H](C)c3ccccc3)nn12` [Compound 6, (S)-N^6,3-dimethyl-N^6-(1-phenylethyl)-[1,2,4]triazolo[4,3-b]pyridazine-6,8-diamine], the IC50 (at BRD4(BD1); in assay [1]) was below 0.5 µM in each case.
With `CCNC(=O)Nc1cc(N(C)[C@@H](C)c2ccccc2)nn2c(C)nnc12` [Compound 5, (S)-1-ethyl-3-(3-methyl-6-(methyl(1-phenylethyl)amino)-[1,2,4]triazolo[4,3-b]pyridazin-8-yl)urea], the IC50 (at BRD4(BD1); in assay [1]; in assay [2]) was below 0.5 µM in each case.
Turning to `CCNC(=O)Nc1cc(N(C)[C@@H](C)c2ccccc2)nn2c(C(F)(F)F)nnc12` [Compound 14], the concentration for half-maximal inhibition (IC50) (on BRD4(BD1); in assay [1]; in assay [3]) was below 0.5 µM each time.
As to `Cc1nnc2ccc(N(C)[C@@H](C)c3ccccc3)nn12` [Compound 3, (S)-N,3-dimethyl-N-(1-phenylethyl)-[1,2,4]triazolo[4,3-b]pyridazin-6-amine], the values for the IC50 (at BRD4(BD1); in assay [1]) were below 0.5 µM and above 1 µM, respectively.
`Cc1nnc2ccc(N3CCCC3c3ccccc3)nn12` (stereo not shown) [Compound 10, 3-methyl-6-(2-phenylpyrrolidin-1-yl)-[1,2,4]-triazolo[4,3-b]pyridazine] registered an IC50 at BRD4(BD1) above 1 µM.
